Experimental data: patent US20130138221A1, “METHODS AND COMPOSITIONS FOR IMPROVING IMPLANT OSSEOINTEGRATION” (Novartis AG, priority 2010, published 2013)

What was measured:
bone resorption = conditions: zoledronic acid versus etidronate; reference 22; cited from earlier work
[1] = test system: estrogen-deprived (OVX) Wistar rats with titanium screw implant in the left tibia; assay: biomechanical removal torque testing of titanium screw implants in tibia of ovariectomized rats; type: in vivo, rat; conditions: 4 weeks post-implantation, implant coated with 8.5 μg zoledronate and/or Antibody 1 100 mg/kg iv. weekly, FIG. 2
Description: Titanium screw type implants (3 mm length, 1-1.5 mm diameter, self-cutting) were prepared by either (1) sand blasting and acid etching with no further coating, or (2) sand blasted and acid etched, then coated with 8.5 μg zoledronate. The coating was carried out by warming the implants and then dip coating with a zolendronate stearate salt and then allowing to dry at 80° C. as described for alendronic acid coating in reference 36. The […] and drying cycle was carried out 3 times. Skeletally mature virgin Wistar rats (6.5-month-old, Harlan laboratories, Switzerland) were estrogen-deprived by ovariectomy (OVX) under narcosis. Bone mineral density loss was confirmed in the proximal tibia metaphysis (4.5 mm distal from proximal end) three months post-ovariectomy (compared to intact controls) by peripheral quantitative computed tomography as described previously. The titanium screws were implanted approximately 3 mm distal to the proximal end of the left tibia under narcosis. Animals received a sand-blasted acid edged titanium implant with or without zoledronic acid coating which were prepared as above. Animals were distributed into the following groups [n=16/group and time point]: 1. OVX group receiving control implant 2. […] Intact group receiving control implant Animals were sacrificed 2 and 4 weeks post-implantation. […]

Row | Molecule | potency relative to etidronate (bone resorption) | increase in removal torque versus OVX control implant (group 1) [1] [%]
1 | O=P(O)(O)C(O)(Cn1ccnc1)P(=O)(O)O [zoledronic acid, 1-hydroxy-2-(imidazol-1-yl)ethane-1,1-diphosphonic acid] | 10,000 times | 
2 | Antibody 1: anti-sclerostin antibody with VH domain SEQ ID NO: 1 and VL domain SEQ ID NO: 2, disclosed in WO09047356 (antibody, V domains shown, Antibody Vh; Antibody Vl) VH: QVQLVESGGGLVQPGGSLRLSCAASGFTFRSHWLSWVRQAPGKGLEWVSNINYDGSSTYYADSVKGRFTISRDNSKNTLYLQMNSLRAEDTAVYYCARDTYLHFDYWGQGTLVTVSS VL: DIALTQPASVSGSPGQSITISCTGTSSDVGDINDVSWYQQHPGKAPKLMIYDVNNRPSGVSNRFSGSKSGNTASLTISGLQAEDEADYYCQSYAGSYLSEVFGGGTKLTVLGQ |  | 32
